Experimental data published in the supplement of paper PMC11208160.

Assay: recombinant barcode read abundance after kanamycin selection (control-corrected) (log10(CPM+1)); higher = more efficient recombination; sequences stand for … in AGTGCAGAGAAAATCGGCCAGTTTTCTCTGCCTGCAGTCCGCATGCCGT…AGATTTATGCAGCGGACTGCCTTTCTCCCAAAGTGATAAACCGGACAGTATCATGGACCGGTTTTCCCGGTAATCCGTATTTGCAAGGTTGGTTTCACT; site = the 11-nt target
Experimental: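 Pooled E. coli target-specificity screen for the IS621 bridge recombinase. Each library plasmid pairs an 11-nt target (CT core) with a bridge RNA whose target-binding loop (9-nt LTG + 4-nt RTG) is reprogrammed; the rest of the 177-nt WT IS621 bridge RNA scaffold is fixed. The plasmid is co-electroporated with a WT donor plasmid; recombinase is induced with 0.1 mM IPTG and recombinants are selected on kanamycin. Recombinant barcodes are sequenced, converted to CPM, averaged over two biological replicates and corrected by the unselected control CPM. Molecule = full bridge RNA written as DNA: LTG = specificity nt 1-9, RTG = reverse complement of specificity nt 8-11, in the WT scaffold.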
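Note: IS621 recombinase and bridge RNA in Escherichia coli cells.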

Sequence	recombinant barcode read abundance (log10)
ACCTACCCTTGGGTTCTAACCTGTTGCGT (site ACATATCCTAC)	0.0563
ACCTACCCTTGGGTTCTAACCTGTTGCGT (site ACCTACCCTAC)	1.54
ACCTACTCTTGGGTTCTAACCTGTTGCCT (site ACCTACGCTAG)	0.0426
ACCTACTCTTGGGTTCTAACCTGTTGCCT (site ACCTACTCTAG)	1.36
ACCTGAACTTGGGTTCTAACCTGTTGCCT (site ACATGAACTAG)	0.056
ACCTGAACTTGGGTTCTAACCTGTTGCCT (site ACCTGAACTAG)	0.75
ACCTGAACTTGGGTTCTAACCTGTTGCCT (site ACGTGAACTAG)	0.0712
ACCTGAACTTGGGTTCTAACCTGTTGCCT (site ACTTGAACTAG)	0.0237
ACCTGTGCTTGGGTTCTAACCTGTTGCCT (site ACCTGTGCTAG)	0.874
ACCTGTGCTTGGGTTCTAACCTGTTGCCT (site ATCTGTTCTAG)	0.151
ACCTTGTCTTGGGTTCTAACCTGTTGCCT (site ACATTGTCTAG)	0.217
ACCTTGTCTTGGGTTCTAACCTGTTGCCT (site ACCTTGTCTAG)	0.93
ACCTTGTCTTGGGTTCTAACCTGTTGCCT (site ACGTTGTCTAG)	0.0273
ACCTTGTCTTGGGTTCTAACCTGTTGCCT (site ACTTTGTCTAG)	0.0709
ACGAACCCTTGGGTTCTAACCTGTTGCCT (site ACGAACCCTAG)	1.42
ACGAACCCTTGGGTTCTAACCTGTTGCCT (site ACGGACCCTAT)	0.247
ACGAAGACTTGGGTTCTAACCTGTTGCCG (site ACGAAGACTCG)	1.08
ACGAAGACTTGGGTTCTAACCTGTTGCCG (site ACGAGGACTCG)	0.0668
ACGACGTCTTGGGTTCTAACCTGTTGCTT (site ACGACGTCTAA)	0.292
ACGACGTCTTGGGTTCTAACCTGTTGCTT (site TCGACGCCTAA)	0.08
ACGACTACTTGGGTTCTAACCTGTTGCCG (site ACGACTACTCG)	0.618

Sequence	recombinant barcode read abundance (log10)
ACGACTACTTGGGTTCTAACCTGTTGCCG (site TATTGGCCTAC)	0.123
ACGATAACTTGGGTTCTAACCTGTTGCCA (site ACGATAACTTG)	0.215
ACGATAACTTGGGTTCTAACCTGTTGCCA (site CTAGATTCTAT)	0.363
ACGATACCTTGGGTTCTAACCTGTTGCCT (site ACGATACCTAG)	0.967
ACGATACCTTGGGTTCTAACCTGTTGCCT (site ACGTTACCTAG)	0.0943
ACGATATCTTGGGTTCTAACCTGTTGCCT (site AAGATATCTAG)	0.181
ACGATATCTTGGGTTCTAACCTGTTGCCT (site ACGATATCTAG)	1.37
ACGATATCTTGGGTTCTAACCTGTTGCCT (site AGGATATCTAG)	0.549
ACGATATCTTGGGTTCTAACCTGTTGCCT (site ATGATATCTAG)	0.0859
ACGATCGCTTGGGTTCTAACCTGTTGCCT (site ACGAACGCTAG)	0.08
ACGATCGCTTGGGTTCTAACCTGTTGCCT (site ACGACCGCTAG)	0.197
ACGATCGCTTGGGTTCTAACCTGTTGCCT (site ACGAGCGCTAG)	0.12
ACGATCGCTTGGGTTCTAACCTGTTGCCT (site ACGATCGCTAG)	1.25
ACGATTCCTTGGGTTCTAACCTGTTGCCT (site AAGATTCCTAG)	0.132
ACGATTCCTTGGGTTCTAACCTGTTGCCT (site ACGATTCCTAG)	0.355
ACGATTCCTTGGGTTCTAACCTGTTGCCT (site AGGATTCCTAG)	0.101
ACGATTCCTTGGGTTCTAACCTGTTGCCT (site ATGATTCCTAG)	0.0978
ACGCACACTTGGGTTCTAACCTGTTGCCT (site ACGCACACTAG)	0.214
ACGCACACTTGGGTTCTAACCTGTTGCCT (site CCGCACACTAG)	0.182
ACGCACACTTGGGTTCTAACCTGTTGCCT (site GCGCACACTAG)	0.236
